Test results as given in patent US4140769A, “3-Substituted salicylamides” (Miles Laboratories, Inc., priority 1978, dated 1979).
Where a name gives a salt, the structure may show the parent alone. Read-outs that look alike come from different tables or passages of the source.

How the values were obtained:
[1] = test system: abdominal constriction response; assay: abdominal constriction response (analgesic activity, acetylcholine chloride-induced, s.c. dosing); format: in vivo, mice; settings: for ED50: Mus musculus, sc; for analgesic activity, in words: Table II conclusions and summary; for ED50 / potency, in words: compared with control compound, other examples; for analgesic activity (no activity): at 20 mg/kg, hydrochloride
Description: The analgesic activity of the compounds of the present invention was tested in mice by means of the "abdominal constriction" response. The test is based on the observation that following interperitoneal injection of a noxious agent, such as acetylcholine chloride, mice show a response which consists of a wave of constriction and elongation passing caudally along the abdominal wall, sometimes accompanied by twisting of the trunk and followed by extension of the hind limbs. […] Non-fasted female mice, weighing between 20 and 25 g, were used in the studies. […] The animals were then placed in a circular glass enclosure and the number of responses counted during a given time period. Compounds completely inhibiting the response to acetycholine in at least five out of ten animals were subsequently tested at reduced dosage levels, using groups of ten animals per dose. The dose required to produce a specified response, that is, analgesic effect, is termed the individual effective dose; the response is a quantal rather than a graded response, since it is either present or absent. The cumulative frequency distribution of individual effective doses obtained, plotted as a function of logarithm of dose, is known as a dose-percent or dose-response curve. The ED50 and ED90 is then calculated from the dose-response curve obtained in the above experiments. […] The expression ED90 indicates the amount of compound required to produce an analgesic effect in 90 percent of animals tested.

[2] = test system: abdominal constriction response; assay: duration of analgesic activity (abdominal constriction response, time for 50 percent decay of the analgesic effect of the ED90 dosage); format: in vivo, mice; settings: for Duration of Activity 1/2 T: time to 50 percent decay of analgesic effect, pharmacologically equipotent doses, based on ED90 dosages; for increase in duration of activity versus unsubstituted control compound (factor): in comparison to the unsubstituted control compound
Description: The analgesic activity of the compounds of the present invention was tested in mice by means of the "abdominal constriction" response. The test is based on the observation that following interperitoneal injection of a noxious agent, such as acetylcholine chloride, mice show a response which consists of a wave of constriction and elongation passing caudally along the abdominal wall, sometimes accompanied by twisting of the trunk and followed by extension of the hind limbs. […] Non-fasted female mice, weighing between 20 and 25 g, were used in the studies. […] The animals were then placed in a circular glass enclosure and the number of responses counted during a given time period.

[3] = subcutaneous, 10 min before i.p. acetylcholine chloride (3.2 mg/kg), mice, read-out: ED50

| Structure (SMILES) | ED50 [1, 3] [mg/kg] | Duration of Activity 1/2 T [2] [min] | ED50 / potency, in words [1] | also measured |
| --- | --- | --- | --- | --- |
| CCN(CC)CCNC(=O)c1ccccc1O.Cl [Control, N-(2-diethylaminoethyl)salicylamide hydrochloride, reference compound] | 16.6 |  |  | analgesic activity, in words ([1]; mice): exhibited analgesic activity |
| CCN(CC)CCNC(=O)c1cccc(C(C)C)c1O [Example 1, N-(2-diethylaminoethyl)-3-isopropylsalicylamide hydrochloride] | 12.7 | 80 | substantially at the same potency as that of the control compound |  |
| CCN(CC)CCNC(=O)c1cccc(C)c1O [Example 2, N-(2-diethylaminoethyl)-3-methylsalicylamide hydrochloride] |  | < 40 | fairly low ED50 | duration of analgesic activity, in words ([2]; compared with control or prior art compounds): no meaningful increase in the duration of analgesic activity; ED50 [1]: 14.2 mg/kg; analgesic activity, in words ([1]; mice): exhibited analgesic activity |
| CCCCCCCCc1cccc(C(=O)NCCN(CC)CC)c1O [Example 3, N-(2-diethylaminoethyl)-3-n-octylsalicylamide hydrochloride] |  |  |  | analgesic activity (no activity) [1]: no activity; analgesic activity (no activity) ([1]; listed as n-octyl): no analgesic activity |
| CCCCc1cccc(C(=O)NCCN(CC)CC)c1O [Example 4, N-(2-diethylaminoethyl)-3-n-butylsalicylamide oxalate] | 31 | 125 | less active analgesics than the other examples and the control sample | increase in duration of activity versus unsubstituted control compound (factor) [2]: greater than 5 fold |
| CCN(CC)CCNC(=O)c1cccc(CC(C)C)c1O [Example 5, N-(2-diethylaminoethyl)-3-isobutylsalicylamide hydrochloride] | 44.5 | 205 |  | increase in duration of activity versus unsubstituted control compound (factor) [2]: greater than 5 fold |
| CCN(CC)CCNC(=O)c1cccc(C(C)(C)C)c1O [Example 6, N-(2-diethylaminoethyl)-3-t-butylsalicylamide hydrochloride] | 14.3 | 120 | substantially at the same potency as that of the control compound |  |
| CCN(CC)CCNC(=O)c1cccc(C(C)(C)CC)c1O [Example 7, N-(2-diethylaminoethyl)-3-t-amylsalicylamide hydrochloride] |  |  |  | analgesic activity (no activity) [1]: no activity; analgesic activity (no activity) ([1]; listed as amyl): no analgesic activity |
| C=CCc1cccc(C(=O)NCCN(CC)CC)c1O [Example 8, N-(2-diethylaminoethyl)-3-allylsalicylamide oxalate] | 17.2 | 80 |  |  |
| C=C(C)Cc1cccc(C(=O)NCCN(CC)CC)c1O [Example 9, N-(2-diethylaminoethyl)-3-methallylsalicylamide oxalate] | 23.8 | 60 | substantially at the same potency as that of the control compound |  |
| CCN(CC)CCNC(=O)c1cccc(Cl)c1O [Example 10, N-(2-diethylaminoethyl)-3-chlorosalicylamide hydrochloride] |  |  |  | analgesic activity (no activity) [1]: no activity; analgesic activity (no activity) ([1]; listed as 3-chloro): no analgesic activity |
